Data reported in publication PMC2361176, “Inhibitory effects of retinoic acid metabolism blocking agents (RAMBAs) on the growth of human prostate cancer cells and LNCaP prostate tumour xenografts in SCID mice” (British Journal of Cancer, 2006).

Key:
[1] = target: T1, CYP26 (Homo sapiens, UniProt O43174); assay: Cellular CYP26 assay: inhibition of ATRA metabolism in intact LNCaP cells; assay type: cell-based; details: intact LNCaP cells pretreated with 1 μM ATRA; [11,12-3H]-ATRA substrate; HPLC
T1 construct: LNCaP cells were incubated with 1 μM ATRA for 24 h to induce the CYP26 enzyme; endogenous in cells; host or cells: LNCaP human prostate cancer cells, pre-treated with 1 μM ATRA
T1 sequence (O43174 1-497): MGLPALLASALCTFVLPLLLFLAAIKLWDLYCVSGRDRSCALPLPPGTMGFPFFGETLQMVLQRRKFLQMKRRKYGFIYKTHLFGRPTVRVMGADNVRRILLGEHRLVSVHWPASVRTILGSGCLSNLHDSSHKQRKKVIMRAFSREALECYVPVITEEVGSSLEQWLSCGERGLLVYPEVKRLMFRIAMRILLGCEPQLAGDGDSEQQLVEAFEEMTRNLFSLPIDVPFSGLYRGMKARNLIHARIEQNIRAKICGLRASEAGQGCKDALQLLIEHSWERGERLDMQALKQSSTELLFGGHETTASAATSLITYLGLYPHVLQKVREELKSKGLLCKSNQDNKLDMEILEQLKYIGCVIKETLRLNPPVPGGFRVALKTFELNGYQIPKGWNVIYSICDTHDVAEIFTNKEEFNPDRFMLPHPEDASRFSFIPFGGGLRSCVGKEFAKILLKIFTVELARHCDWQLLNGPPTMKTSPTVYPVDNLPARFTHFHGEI
Experimental: Following ATRA treatment, the LNCaP cells were incubated with 0.1 or 0.8 μM [11,12-^3H]-ATRA (PerkinElmer Life and Analytical Sciences, Inc., Boston, MA, USA) for 5 h. Following the 5 h incubation, the medium was collected and the cells were trypsinised and collected.

[2] = system: LNCaP cells; assay: WST-1 cell viability / LNCaP cell growth inhibition assay; assay type: cell-based; details: Homo sapiens, 144 h, 6 days, read-out: Cell growth inhibition, agents alone, IC50
Experimental: To measure cell viability, 24-well plates were coated with a 0.05% poly-L-lysine solution for 30 min. The wells were then washed with sterilised dH2O. LNCaP cells (1 × 10^4) were seeded in the plates and maintained in RPMI 1640 medium (Gibco-Invitrogen, Carlsbad, CA, USA). The cells were allowed to attach for 36 h. After attachment, fresh media was added and the cells were treated with a concentration range of either ATRA or each of the RAMBAs for 6 days. The media was changed every 3 days. On the day the assay was performed, the media was removed and 1 ml of a stock solution of WST-1 (4-[3-(4-iodophenyl)-2-(4-nitrophenyl)-2H-5-tetrazolio]-1,3-benzene disulfonate) cell proliferation reagent (Boehringer Mannheim, Indianapolis, IN, USA), diluted 1 : 10 in RPMI 1640 medium (without FBS), was added to each well. The plates were incubated at 37°C for 3 h. The media was then removed and 500 μl of DMSO was added and agitated vigorously for 5 min. The slightly red tetrazolium salt WST-1 is reduced to a dark red, water-soluble formazan product by mitochondrial dehydrogenase from living cells, which gives absorbance at a wavelength of 450 nm.

[3] = system: LNCaP cells; assay: TUNEL assay of apoptosis in LNCaP cells; assay type: cell-based, human; details: 6 days; for percentage of apoptotic cells (TUNEL): 5 μM; for induction of apoptosis (TUNEL): 1 or 5 μM
Experimental: A total of 4000 LNCaP cells were plated on each well of an eight-well Lab-Tek II® chamber slide (Nalge Nunc International, Naperville, IL, USA). The LNCaP cells were then treated with either 1 or 5 μM of ATRA or RAMBA for 6 days. Cells were then fixed in 4% paraformaldehyde solution in dH2O. The cells were then processed and stained with FITC (fluorescein isothiocyanate) according to kit instructions (In situ cell death detection kit, AP, Roche Diagnostics Corp., Indianapolis, IN, USA). The FITC-stained cells are then mounted with VectorShield® mounting medium for fluorescence with DAPI (4′,6-diamidine-2′-phenylindole dihydrochloride) nuclear stain (Vector Laboratories, Inc., Burlingame, CA, USA) and covered with ApopTag® plastic coverslips (Intergen Company, Purchase, NY, USA). The slides were then examined under fluorescence microscopy (Eclipse E400, Nikon, Inc., Melville, NY, USA) and counted using SPOT Advance® 3.5 software (Diagnostic Instruments, Inc., Sterling Heights, MI, USA).

[4] = system: Bcl-2; assay: Western-blot analysis of Bcl-2 in LNCaP cells; assay type: cell-based, human; details: data not shown
Experimental: The Western-blot protocol described for cytokeratins 8/18 was followed with some exceptions. Cell lysates (50 μg) were separated on a 15% SDS–PAGE gel. All washing was performed using TBS containing 1% Tween 20 (TBS-T). Blocking was performed using 5% milk in TBS-T. Incubations were performed using rabbit monoclonal IgG antibody to Bad and Bcl-2 (1 : 1000), as well as horseradish peroxidase-linked anti-rabbit IgG antibodies (1 : 2000) (Cell Signaling Technology, Beverly, MA, USA).

[5] = system: LNCaP cells; assay: Cell-cycle analysis (propidium iodide, FACScan); assay type: cell-based, human; details: 5 μM, 6 days; for Sub-G1 (%): apoptotic cells, control 9.02; for G2/M (%): control 2.20; for S (%): control 15.01; for G0/G1 (%): control 82.78
Experimental: LNCaP cells were treated with 1 or 5 μM of ATRA or each of the RAMBAs for 6 days. The cells were trypsinised and washed twice in PBS (Life Technologies, Grand Island, NY, USA). The cells were fixed by adding 70% ethanol and stored at −20°C until staining. The cells were washed twice in PBS. A volume of 1 ml of a propidium iodide (PI) solution (50 μg ml^−1 in PBS) and 500 μl of an RNase stock solution (100 μg ml^−1) were added to the cells and incubated for 1 h in the dark. Approximately 10^4 stained cells were then analysed by flow cytometry (Becton Dickenson FACScan, Franklin Lakes, NJ, USA). The percentages of cells in G0/G1, S, and G2/M phases of the cell cycle as well as percentage of apoptotic cells (sub G0/G1) were determined using MODFIT LT software (Verity Software House, San Jose, CA, USA). The percentages of cells in G0/G1, S, and G2/M phases of the cell cycle were obtained from diploid cells in the sample and the percentage of apoptotic cells (sub G0/G1) was obtained from total cells minus the debris.

| SMILES | IC50 [1] | IC50 [2] | percentage of apoptotic cells (TUNEL) [3] | induction of apoptosis (TUNEL) [3] | expression of Bcl-2 [4] | Sub-G1 (%) [5] | G2/M (%) [5] | S (%) [5] | G0/G1 (%) [5] |
| --- | --- | --- | --- | --- | --- | --- | --- | --- | --- |
| CC1=C(/C=C/C(C)=C/C=C/C(C)=C/C(=O)O)C(C)(C)CCC1n1ccnc1 (centres unmarked) [VN/14-1] | 0.0065 ± 0.0015 µM | 10 µM | 17.03% | concentration-dependent induction of apoptosis | concentration-dependent decrease | 17.88% | 10.15% | 7.26% | 82.59% |
| CC1=C(/C=C/C(C)=C/C=C/C(C)=C/C(=O)Nc2ccc(O)cc2)C(C)(C)CCC1n1ccnc1 (centres unmarked) [VN/66-1] | 0.0625 ± 0.0125 µM | 4.5 µM | – | concentration-dependent induction of apoptosis | did not effect | 14.49% | 5.07% | 11.14% | 83.80% |
| CC1=C(/C=C/C(C)=C/C=C/C(C)=C/C(=O)n2ccnc2)C(C)(C)CCC1n1ccnc1 (centres unmarked) [VN/50-1] | 0.09 ± 0.01 µM | 6 µM | 17.03% | concentration-dependent induction of apoptosis | did not effect | 17.67% | 7.30% | 11.38% | 81.33% |
| CC1=C(/C=C/C(C)=C/C=C/C(C)=C\C(=O)Nc2ccc(O)cc2)C(C)(C)CCC1n1ccnc1 (centres unmarked) [VN/69-1] | 0.09 ± 0.0125 µM | 5 µM | – | concentration-dependent induction of apoptosis | did not effect | 13.39% | 6.20% | 11.14% | 82.66% |
| CC1=C(/C=C/C(C)=C/C=C/C(C)=C/C(=O)O)C(C)(C)CCC1 [ATRA, all-trans-retinoic acid, reference compound] | – | 4.3 µM | – | concentration-dependent induction of apoptosis | concentration-dependent decrease | 13.64% | 12.42% | 9.84% | 77.74% |
